Experimental data published in patent US9873680B2 (Gilead Sciences, Inc., priority 2014, dated 2018).
Structures can show the parent of a compound that is named as a salt. Where two headings read alike, the source gives them in different places.

How the values were obtained:
[1] = tested on: HIV-IIIb; test: Test A: Antiviral Assay in MT4 Cells; assay type: cell-based, HIV-1
Procedure, shortened: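 MT-4 cells were preinfected with HIV-IIIb […]. Cell viability, as protection from viral cytopathic effect, was read by CellTiter-Glo chemiluminescence.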

[2] = Test B: Cytotoxicity Assay; assay type: cell-based; conditions: human, uninfected MT-4 cells, CellTiter-Glo
Description: Test B: Cytotoxicity Assay Compound cytotoxicity and the corresponding CC50 values was determined using the same protocol as described in the antiviral assay (Test A) except that uninfected cells were used.

[3] = Human immunodeficiency virus 1, IIIB, MT4, 120 h, read-out: % inhibition at 0.2 μM (percent inhibition of virus-induced cell killing)
[4] = Human immunodeficiency virus 1, MT4, 120 h, 0.2 μM drug concentration, MT-4 cells infected with HIV-IIIb, 5 days, values normalized to 100%, average over time, read-out: % inhibition at 0.2 μM (percent inhibition of virus-induced cell killing)

Row | SMILES | inhibition at 0.2 µM [1, 3] [%] | CC50 at 5 days [2] [µM] | inhibition at 0.2 µM [1, 4] [%] | inhibition at 0.2 µM ([1]; Human immunodeficiency virus 1, IIIB, MT4, 0.2 μM drug concentration, comparison with previously published compounds, read-out: Response at 0.2 μM (percent inhibition of virus-induced cell killing)) [%] | inhibition at 2 µM ([1]; Human immunodeficiency virus 1, IIIB, MT4, 2 μM drug concentration, comparison with previously published compounds, read-out: Response at 2 μM (percent inhibition of virus-induced cell killing)) [%]
1 | Cn1nc(O)c2c(Cl)ccc(-c3ccc(C#CC4(O)CCOCC4)nc3[C@H](Cc3cc(F)cc(F)c3)NC(=O)Cn3nc(C(F)(F)F)c4c3CCCC4)c21 [Compound 57, (S)—N-(1-(3-(4-chloro-3-hydroxy-1-methyl-1H-indazol-7-yl)-6-((4-hydroxytetrahydro-2H-pyran-4-yl)ethynyl)pyridin-2-yl)-2-(3,5-difluorophenyl)ethyl)-2-(3-(trifluoromethyl)-4,5,6,7-tetrahydro-1H-indazol-1-yl)acetamide] | 100 | 21 |  |  | 
2 | Cn1cnc(C#Cc2ccc(-c3ccc(Cl)c4c(NS(C)(=O)=O)nn(C)c34)c([C@H](Cc3cc(F)cc(F)c3)NC(=O)Cn3nc(C(F)F)c4c3C(F)(F)[C@@H]3C[C@H]43)n2)c1 [Compound 78, N—((S)-1-(3-(4-chloro-1-methyl-3-(methylsulfonamido)-1H-indazol-7-yl)-6-((1-methyl-1H-imidazol-4-yl)ethynyl)pyridin-2-yl)-2-(3,5-difluorophenyl)ethyl)-2-((3bS,4aR)-3-(difluoromethyl)-5,5-difluoro-3b,4,4a,5-tetrahydro-1H-cyclopropa[3,4]cyclopenta[1,2-c]pyrazol-1-yl)acetamide] |  | > 36.6 | 87 |  | 
3 | NC(=O)c1cc(-c2ccc(C#CC3(O)CCCC3)nc2[C@H](Cc2cc(F)cc(F)c2)NC(=O)Cn2nc(C(F)(F)F)c3c2C(F)(F)[C@@H]2C[C@H]32)ccc1F [Compound 15B, 5-(2-((S)-1-(2-((3bS,4aR)-5,5-difluoro-3-(trifluoromethyl)-3b,4,4a,5-tetrahydro-1H-cyclopropa[3,4]cyclopenta[1,2-c]pyrazol-1-yl)acetamido)-2-(3,5-difluorophenyl)ethyl)-6-((1-hydroxycyclopentyl)ethynyl)pyridin-3-yl)-2-fluorobenzamide] |  | 3.02 | 68 | 68 | 68
4 | Cn1nc(NS(C)(=O)=O)c2cccc(-c3ccc(C#CC4(O)CC(F)(F)C4)nc3[C@H](Cc3cc(F)cc(F)c3)NC(=O)Cn3nc(C(F)(F)F)c4c3C(F)(F)[C@@H]3C[C@H]43)c21 [Compound 105D] |  | 6.46 | 88 |  | 
5 | O=C(Cn1nc(C(F)F)c2c1C(F)(F)CCC2(F)F)N[C@@H](Cc1cc(F)cc(F)c1)c1nc(C#Cc2ccccc2)ncc1-c1ccc2c(c1)C(=O)NC2 [Compound 8, (S)-2-(3-(difluoromethyl)-4,4,7,7-tetrafluoro-4,5,6,7-tetrahydro-1H-indazol-1-yl)-N-(2-(3,5-difluorophenyl)-1-(5-(3-oxoisoindolin-5-yl)-2-(phenylethynyl)pyrimidin-4-yl)ethyl)acetamide] | 102 | > 53.2 |  |  | 
6 | Cn1nc(NS(C)(=O)=O)c2cccc(-c3ccc(C#CC4(O)CCOCC4)nc3[C@H](Cc3cc(F)cc(F)c3)NC(=O)Cn3nc(C(F)(F)F)c4c3C(F)(F)[C@@H]3C[C@H]43)c21 [Compound 26, 2-((3bS,4aR)-5,5-difluoro-3-(trifluoromethyl)-3b,4,4a,5-tetrahydro-1H-cyclopropa[3,4]cyclopenta[1,2-c]pyrazol-1-yl)-N—((S)-2-(3,5-difluorophenyl)-1-(6-((4-hydroxytetrahydro-2H-pyran-4-yl)ethynyl)-3-(1-methyl-3-(methylsulfonamido)-1H-indazol-7-yl)pyridin-2-yl)ethyl)acetamide] |  | 15.9 | 94 |  | 
7 | Cn1nc(NS(C)(=O)=O)c2c(Cl)ccc(-c3ccc(C#CC4CCCNC4)nc3[C@H](Cc3cc(F)cc(F)c3)NC(=O)Cn3nc(C(F)(F)F)c4c3C(F)(F)[C@@H]3C[C@H]43)c21 (stereo partly drawn) [Compound 73, N-((1S)-1-(3-(4-chloro-1-methyl-3-(methylsulfonamido)-1H-indazol-7-yl)-6-(piperidin-3-ylethynyl)pyridin-2-yl)-2-(3,5-difluorophenyl)ethyl)-2-((3bS,4aR)-5,5-difluoro-3-(trifluoromethyl)-3b,4,4a,5-tetrahydro-1H-cyclopropa[3,4]cyclopenta[1,2-c]pyrazol-1-yl)acetamide] | 100 | 6 |  |  | 
8 | O=C(Cn1nc(C(F)F)c2c1C(F)(F)CCC2(F)F)N[C@@H](Cc1cc(F)cc(F)c1)c1nc(C#Cc2cncnc2)ncc1-c1ccc2c(c1)C(=O)NC2 [Compound 7H] | 94 | 0.534 |  |  | 
9 | Cn1nc(NS(C)(=O)=O)c2c(Cl)ccc(-c3ccc(C#C[C@@H]4COC(=O)N4)nc3[C@H](Cc3cc(F)cc(F)c3)NC(=O)Cn3nc(C(F)F)c4c3C(F)(F)[C@@H]3C[C@H]43)c21 [Compound 97C, N—((S)-1-(3-(4-chloro-1-methyl-3-(methylsulfonamido)-1H-indazol-7-yl)-6-(((R)-2-oxooxazolidin-4-yl)ethynyl)pyridin-2-yl)-2-(3,5-difluorophenyl)ethyl)-2-((3bS,4aR)-3-(difluoromethyl)-5,5-difluoro-3b,4,4a,5-tetrahydro-1H-cyclopropa[3,4]cyclopenta[1,2-c]pyrazol-1-yl)acetamide] |  | 15.2 | 89 |  | 
10 | Cn1nc(NS(C)(=O)=O)c2c(Cl)ccc(-c3ccc(C#CC4CCNC4)nc3[C@H](Cc3cc(F)cc(F)c3)NC(=O)Cn3nc(C(F)(F)F)c4c3C(F)(F)[C@@H]3C[C@H]43)c21 (stereo partly drawn) [Compound 44, N-((1S)-1-(3-(4-chloro-1-methyl-3-(methylsulfonamido)-1H-indazol-7-yl)-6-(pyrrolidin-3-ylethynyl)pyridin-2-yl)-2-(3,5-difluorophenyl)ethyl)-2-((3bS,4aR)-5,5-difluoro-3-(trifluoromethyl)-3b,4,4a,5-tetrahydro-1H-cyclopropa[3,4]cyclopenta[1,2-c]pyrazol-1-yl)acetamide] |  | 5.64 | 100 |  | 
11 | Cn1nc(NS(C)(=O)=O)c2c(Cl)ccc(-c3ccc(C#CC4(CO)CCCC4)nc3[C@H](Cc3cc(F)cc(F)c3)NC(=O)Cn3nc(C(F)(F)F)c4c3C(F)(F)[C@@H]3C[C@H]43)c21 [Compound 45B, N—((S)-1-(3-(4-chloro-1-methyl-3-(methylsulfonamido)-1H-indazol-7-yl)-6-((1-(hydroxymethyl)cyclopentyl)ethynyl)pyridin-2-yl)-2-(3,5-difluorophenyl)ethyl)-2-((3bS,4aR)-5,5-difluoro-3-(trifluoromethyl)-3b,4,4a,5-tetrahydro-1H-cyclopropa[3,4]cyclopenta[1,2-c]pyrazol-1-yl)acetamide] |  | 7.35 | 93 |  | 
12 | Cn1cncc1C#Cc1ccc(-c2cccc3c(NS(C)(=O)=O)nn(C)c23)c([C@H](Cc2cc(F)cc(F)c2)NC(=O)Cn2nc(C(F)(F)F)c3c2C(F)(F)[C@@H]2C[C@H]32)n1 [Compound 33, 2-((3bS,4aR)-5,5-difluoro-3-(trifluoromethyl)-3b,4,4a,5-tetrahydro-1H-cyclopropa[3,4]cyclopenta[1,2-c]pyrazol-1-yl)-N—((S)-2-(3,5-difluorophenyl)-1-(6-((1-methyl-1H-imidazol-5-yl)ethynyl)-3-(1-methyl-3-(methylsulfonamido)-1H-indazol-7-yl)pyridin-2-yl)ethyl)acetamide] |  | 12.5 | 93 |  | 
13 | Cn1nc(NS(C)(=O)=O)c2c(Cl)ccc(-c3ccc(C#CC4(O)CO[C@H]5OCC[C@H]54)nc3[C@H](Cc3cc(F)cc(F)c3)NC(=O)Cn3nc(C(F)(F)F)c4c3C(F)(F)[C@@H]3C[C@H]43)c21 (stereo partly drawn) [Compound 50B, N-((1S)-1-(3-(4-chloro-1-methyl-3-(methylsulfonamido)-1H-indazol-7-yl)-6-(((3aS,6aR)-3-hydroxyhexahydrofuro[2,3-b]furan-3-yl)ethynyl)pyridin-2-yl)-2-(3,5-difluorophenyl)ethyl)-2-((3bS,4aR)-5,5-difluoro-3-(trifluoromethyl)-3b,4,4a,5-tetrahydro-1H-cyclopropa[3,4]cyclopenta[1,2-c]pyrazol-1-yl)acetamide] |  | 10 | 92 |  | 
14 | O=C(Cn1nc(C(F)F)c2c1C(F)(F)CCC2(F)F)N[C@@H](Cc1cc(F)cc(F)c1)c1nc(C#Cc2cncnc2)ccc1-c1ccc2c(c1)C(=O)NC2 [Compound 1J, (S)-2-(3-(difluoromethyl)-4,4,7,7-tetrafluoro-4,5,6,7-tetrahydro-1H-indazol-1-yl)-N-(2-(3,5-difluorophenyl)-1-(3-(3-oxoisoindolin-5-yl)-6-(pyrimidin-5-ylethynyl)pyridin-2-yl)ethyl)acetamidehydrochloride] |  | > 53.2 | 81 |  | 
15 | O=C(Cn1nc(C(F)F)c2c1C(F)(F)CCC2(F)F)N[C@@H](Cc1cc(F)cc(F)c1)c1nc(C#Cc2cncnc2)ccc1-c1ccc2c(c1)C(=O)NC21CC1 [Compound 6, (S)-2-(3-(difluoromethyl)-4,4,7,7-tetrafluoro-4,5,6,7-tetrahydro-1H-indazol-1-yl)-N-(2-(3,5-difluorophenyl)-1-(3-(3′-oxospiro[cyclopropane-1,1′-isoindolin]-5′-yl)-6-(pyrimidin-5-ylethynyl)pyridin-2-yl)ethyl)acetamide] |  | 1.66 | 0 |  | 
